Read-outs that look alike come from different tables or passages of the source. Starred links: 1 amine or outer side, 2 acyl side, 3 side chain; linkers in the order of their positions; H or OH if unused. Non-standard residues stand in square brackets, D forms with d. Residues, ends and D or L forms follow the SMILES beside them. X2 = O=C([C@@H]1CC[C@H](CN[*:1])O1)[*:2]
Key:
PA1 (human ovary) = experiment: MTT cytotoxicity assay, PA1 cells; format: cell-based; details: human, 48 hours
Source text: (§1) The following cell lines were used.

HeP-2 (larynx) = experiment: MTT cytotoxicity assay, HeP-2 cells; format: cell-based, human; details: 48 hours
Source text: as §1

PTC (colon) = experiment: MTT cytotoxicity assay, PTC cells; format: cell-based, human; details: 48 hours
Source text: as §1

HeP-G2 (liver) = experiment: MTT cytotoxicity assay, HeP-G2 cells; format: cell-based, human; details: 48 hours
Source text: as §1

[1] = test system: MiaPaCa.2 (human pancreas); experiment: MTT cytotoxicity assay, MiaPaCa.2 cells; format: cell-based; details: 48 hours
Source text: as §1

ECV-304 (endothelial) = details: ECV-304 cells, 48 hours, NA = Not Active
Source text: Although sterile phosphate buffered saline was used to prepare each stock solution for the testing described in the following example, other diluents may be used such as buffered saline, isotonic NaCl, Ringer's solution, water, distilled water, polyethylene glycol (neat or in water), Tween in water, dimethylsulfoxide up to 50% in water, propylene glycol (neat or in water), phosphate buffered saline, balanced salt solution, glycerol, and other conventional fluids that are suitable for parentral administration. To obtain a pH in the range of approximately 3.5 to 7.0, for each stock solution, the pH can be adjusted by using 1N HCl for lowering the pH or 1N NaOH for raising the pH, although other buffers such as citrate buffer, phosphate buffer and the like or other conventional agents for adjusting the pH can be used.
The MTT assay is based on the principle of uptake of MTT [3-[4,5-dimethylthiazol-2-yl]-2,5-diphenyl tetrazolium bromide], a tetrazolium salt, by the metabolically active cells where it is metabolized by active mitochondria into a blue colored formazan product which can be read spectrophotometrically. […] The formazan crystals formed inside the cells were dissolved with a detergent comprising of 10% Sodium dodecyl sulfate and 0.01 N HCl and optical density read on a multi-scan ELISA reader. The optical density was directly proportional to the number of proliferating and metabolically active cells. The following cell lines were used. PA1(human ovary), PTC (colon), HeP-2 (larynx), MiaPaCa.2 (human pancreas), KB (oral), ECV-304 (endothelial) and HeP-G2 (liver).

KB (oral) = experiment: MTT cytotoxicity assay, KB cells; format: cell-based, human; details: KB cells, 48 hours, NA = Not Active
Source text: as §1

## CSCC[C@H](N)C(=O)NC[C@H]1CC[C@@H](C(=O)N[C@@H](Cc2ccc(O)cc2)C(=O)N[C@@H](CC(C)C)C(=O)O)O1 [SEQ ID NO: 17, Met-Saa4-Tyr-Leu]
PA1 (human ovary); 1 nM
  Percent Cytotoxicity: 18.2 ± 1.1%
PA1 (human ovary); 10 nM
  Percent Cytotoxicity: 17.8 ± 1.7%
PA1 (human ovary); 100 nM
  Percent Cytotoxicity: 15.9 ± 0.6%
PA1 (human ovary); 1 μM
  Percent Cytotoxicity: 6.0 ± 0.7%
HeP-2 (larynx); human, 1 nM
  Percent Cytotoxicity: 33.6 ± 2.7%
HeP-2 (larynx); human, 10 nM
  Percent Cytotoxicity: 31.7 ± 3.2%
HeP-2 (larynx); human, 100 nM
  Percent Cytotoxicity: 29.0 ± 0.4%
HeP-2 (larynx); human, 1 μM
  Percent Cytotoxicity: 27.9 ± 2.9%
PTC (colon); human, 1 nM
  Percent Cytotoxicity: 12.0 ± 1.7%
PTC (colon); human, 10 nM
  Percent Cytotoxicity: 11.9 ± 1.4%
PTC (colon); human, 100 nM
  Percent Cytotoxicity: 10.4 ± 0.6%
PTC (colon); human, 1 μM
  Percent Cytotoxicity: 8.4 ± 1.0%
HeP-G2 (liver); human, 1 nM
  Percent Cytotoxicity: 12.8 ± 0.6%
HeP-G2 (liver); human, 10 nM
  Percent Cytotoxicity: 17.9 ± 1.4%
HeP-G2 (liver); human, 100 nM
  Percent Cytotoxicity: 20.9 ± 1.4%
HeP-G2 (liver); human, 1 μM
  Percent Cytotoxicity: 12.0 ± 0.7%
[1]; human, 1 nM
  Percent Cytotoxicity: 23.0 ± 2.1%
[1]; human, 10 nM
  Percent Cytotoxicity: 21.8 ± 1.9%
[1]; human, 100 nM
  Percent Cytotoxicity: 17.0 ± 0.9%
[1]; human, 1 μM
  Percent Cytotoxicity: 16.0 ± 1.4%
ECV-304 (endothelial); peptide 1 nM
  Percent Cytotoxicity: 16.4 ± 1.9%
ECV-304 (endothelial); peptide 10 nM
  Percent Cytotoxicity: 13.9 ± 0.5%
ECV-304 (endothelial); peptide 100 nM
  Percent Cytotoxicity: 11.9 ± 1.1%

## CSCC[C@H](NC(=O)[C@@H](N)CC(C)C)C(=O)NC[C@H]1CC[C@@H](C(=O)N[C@H](C(=O)N[C@@H](Cc2ccc(O)cc2)C(=O)N[C@@H](CC(C)C)C(=O)N[C@@H](CCCCN)C(=O)O)[C@@H](C)O)O1 [SEQ ID NO: 9, Leu-Met-Saa4-Thr-Tyr-Leu-Lys] (H-LM[X2]TYLK-OH)
HeP-2 (larynx); HeP-2 cells, peptide 1 nM, NA = Not Active
  Percent Cytotoxicity: 20.9 ± 2.0%
HeP-2 (larynx); HeP-2 cells, peptide 10 nM, NA = Not Active
  Percent Cytotoxicity: 21.0 ± 1.9%
HeP-2 (larynx); HeP-2 cells, peptide 100 nM, NA = Not Active
  Percent Cytotoxicity: 18.8 ± 1.9%
HeP-2 (larynx); HeP-2 cells, peptide 1 μM, NA = Not Active
  Percent Cytotoxicity: 14.6 ± 1.6%
PTC (colon); PTC cells, peptide 1 nM, NA = Not Active
  Percent Cytotoxicity: 33.5 ± 2.9%
PTC (colon); PTC cells, peptide 10 nM, NA = Not Active
  Percent Cytotoxicity: 31.9 ± 2.8%
PTC (colon); PTC cells, peptide 100 nM, NA = Not Active
  Percent Cytotoxicity: 29.5 ± 2.7%
PTC (colon); PTC cells, peptide 1 μM, NA = Not Active
  Percent Cytotoxicity: 26.0 ± 2.2%
KB (oral); peptide 1 nM
  Percent Cytotoxicity: 14.5 ± 1.8%
KB (oral); peptide 10 nM
  Percent Cytotoxicity: 12.5 ± 1.9%
KB (oral); peptide 100 nM
  Percent Cytotoxicity: 10.5 ± 1.2%
HeP-G2 (liver); HeP-G2 cells, peptide 1 nM, NA = Not Active
  Percent Cytotoxicity: 11.2 ± 1.1%
HeP-G2 (liver); HeP-G2 cells, peptide 10 nM, NA = Not Active
  Percent Cytotoxicity: 10.7 ± 1.1%
[1]; MiaPaCa.2 cells, peptide 1 nM, NA = Not Active
  Percent Cytotoxicity: 14.8 ± 2.9%
[1]; MiaPaCa.2 cells, peptide 10 nM, NA = Not Active
  Percent Cytotoxicity: 12.9 ± 1.5%
[1]; MiaPaCa.2 cells, peptide 100 nM, NA = Not Active
  Percent Cytotoxicity: 9.3 ± 1.1%
[1]; MiaPaCa.2 cells, peptide 1 μM, NA = Not Active
  Percent Cytotoxicity: 5.9 ± 0.0%
ECV-304 (endothelial); peptide 1 nM
  Percent Cytotoxicity: 12.8 ± 1.4%
ECV-304 (endothelial); peptide 10 nM
  Percent Cytotoxicity: 15.8 ± 1.1%
ECV-304 (endothelial); peptide 100 nM
  Percent Cytotoxicity: 10.4 ± 2.0%
ECV-304 (endothelial); peptide 1 μM
  Percent Cytotoxicity: 7.9 ± 0.4%

— patent US7060678B2, “Peptides comprising furanoid sugar amino acids for the treatment of cancer” (Dabur Research Foundation, priority 2003, dated 2006)
